Values quoted from earlier work in article PMC8698377, “In Vitro Hepatic Assessment of Cineole and Its Derivatives in Common Brushtail Possums (Trichosurus vulpecula) and Rodents” (Biology, 2021).
Where two headings read alike, the source gives them in different places.

Experiments:
[1] = tested on: CYP3A; parameters: method as in PMID 12593759; details: possums, ketoconazole 5 µM, cited from earlier work
[2] = tested on: CYP3A; parameters: method as in PMID 12593759; details: rats, ketoconazole; cited from earlier work

CC(=O)N1CCN(c2ccc(OCC3COC(Cn4ccnc4)(c4ccc(Cl)cc4Cl)O3)cc2)CC1 (stereo not drawn) [Ketoconazole, ketoconazole]
reduction of the formation of 9-hydroxycineole ([1]; cineole concentration 10 µM): 15%
reduction of the formation of 9-hydroxycineole ([1]; cineole concentration 100 µM): 30%
reduction of the metabolite formation [2]: 85%
